Like-named read-outs stand apart in the source and are kept apart here.
How the values were obtained:
T.b. brucei [1] = experiment: T.b. brucei temporal viability (time-kill) assay, 24 h, PrestoBlue; type: cell-based, Trypanosoma brucei brucei; details: for Emax: read-out: Emax 24 h T.b. brucei (converted); for IC50: read-out: IC50 24 h T.b. brucei
Procedure: Time-kill assays was undertaken as previously described, using the REDOX reagent PrestoBlue® [24]. […] Control compounds were added at the same concentrations at outlined for the resazurin-based assays.

T. cruzi and T.b. brucei = experiment: Speed of action and cidality classification from temporal and wash off assays; type: cell-based, Trypanosoma cruzi, Trypanosoma brucei brucei; details: for Speed of Action (FA/SA): TBB = T.b. brucei; for Speed of Action (Table 5): prioritised compounds, Fast/Slow
HEK293 cells = experiment: HEK293 cytotoxicity assay; type: cell-based, human; details: HEK293, 72 h, NA = not active, highest dose 79 µM unless given
T.b. brucei [2] = experiment: T.b. brucei temporal viability (time-kill) assay, 48 h, PrestoBlue; type: cell-based, Trypanosoma brucei brucei; details: for Emax: read-out: Emax 48 h T.b. brucei (converted); for IC50: read-out: IC50 48 h T.b. brucei
[3] = test system: T.b. brucei bloodstream 427 strain parasites; experiment: T.b. brucei 72 h REDOX-based (resazurin) viability assay; type: cell-based, Trypanosoma brucei brucei; details: for Emax / IC50 / Emax % (T.b. brucei): 72 h; for SI (T.b. brucei) HEK: selectivity index in relation to HEK293 cells; for SI (T.b. brucei) (HEP): selectivity index in relation to HEPG2 cells
[4] = test system: T. cruzi Tulahuen strain parasites in 3T3 host cells; experiment: T. cruzi 48 h image-based assay; type: cell-based, Trypanosoma cruzi; details: for Emax % (T. cruzi) / IC50 / Emax: 48 h; for IC50: read-out: IC50 (T. cruzi); for SI (T. cruzi) 3T3: selectivity index in relation to 3T3 host cells, highest dose 3T3 73 µM; for SI (T. cruzi) HEK: selectivity index in relation to HEK293 cells; for Emax: read-out: Emax % (T. cruzi) (converted); for SI (T. cruzi) (HEP): selectivity index in relation to HEPG2 cells
T. cruzi [5] = experiment: T. cruzi compound wash off assay (48 h with compound, wash off, 72 h without); type: cell-based, Trypanosoma cruzi; details: T. cruzi; for Emax Wash Off / IC50 / Emax: 48 h incubation, further 72 h, wash off; for IC50: read-out: IC50 Wash Off; for Fold Change of IC50, wash off vs 48 h: IC50 from 48 h incubation to IC50 following wash off and further 72 h
T. cruzi [6] = experiment: T. cruzi temporal image-based assay, 24 h exposure; type: cell-based, Trypanosoma cruzi; details: for Emax / IC50: Trypanosoma cruzi; for IC50: read-out: IC50 24 h T. cruzi
[7] = NA = not active at given concentration

Compound	Emax (T.b. brucei [1]; Trypanosoma brucei) [%]	IC50 (T.b. brucei [1]; Trypanosoma brucei) [µM]	Speed of Action (FA/SA) (T. cruzi and T.b. brucei; TC = T. cruzi)	Emax (T.b. brucei [2]; Trypanosoma brucei) [%]	IC50 (T.b. brucei [2]; Trypanosoma brucei) [µM]	Emax ([3]; Trypanosoma brucei) [%]	IC50 ([3]; Trypanosoma brucei) [µM]	SI (T.b. brucei) HEK [3]	Emax % (T. cruzi) [4] [%]	IC50 [4] [µM]	SI (T. cruzi) 3T3 [4]	SI (T. cruzi) HEK [4]	IC50 (HEK293 cells) [µM]	Emax % (T.b. brucei) [3] [%]	IC50 [3] [µM]	Fold Change of IC50, wash off vs 48 h (T. cruzi [5]) [fold]	Emax ([4]; Trypanosoma cruzi, TULAHUEN) [%]	IC50 ([4]; Trypanosoma cruzi, TULAHUEN) [µM]	SI (T. cruzi) (HEP) [4]	IC50 (T. cruzi [5]; Trypanosoma cruzi) [µM]	other results
C[C@@H]1[C@H](O)[C@@H](C)/C=C/C=C/C=C/C=C/C=C/C=C/C=C/[C@H](O[C@@H]2O[C@H](C)[C@@H](O)[C@H](N)[C@@H]2O)C[C@@H]2O[C@](O)(C[C@@H](O)C[C@@H](O)[C@H](O)CC[C@@H](O)C[C@@H](O)CC(=O)O[C@H]1C)C[C@H](O)[C@H]2C(=O)O [Amphotericin B, reference compound]	100	0.88 ± 0.163	FA (Fast-acting (FA) = IC50 value can be determined following 24 h incubation, <10-fold difference in the IC50 value from 24 to 72 h)	100	0.26 ± 0.0016	100	1.5 ± 0.088	>2.6	–	–	–	–	–	–	–	–	–	–	–	–	IC50 HEK (HEK293 cells): NA at 4.0 µM (NT)
N=C(N)c1ccc(/N=N/Nc2ccc(C(=N)N)cc2)cc1 [Diminazene aceturate, reference compound]	99	0.21 ± 0.058	FA (Fast-acting (FA) = IC50 value can be determined following 24 h incubation, <10-fold difference in the IC50 value from 24 to 72 h)	100	0.07 ± 0.027	100	0.037 ± 0.00041	>1027	–	–	–	–	–	–	–	–	–	–	–	–	IC50 HEK (HEK293 cells): NA at 38 µM (NT)
CN1CCC(NCc2cccc(-c3ccc(S(=O)(=O)NCc4ccccc4)cc3)c2)CC1 [MMV 22029]	–	–	–	–	–	–	–	5.6	100	8.2 ± 0.69	1.2	1.0 (NT)	8.1 ± 0.054	99	1.5 ± 0.059	–	–	–	–	–	SI (T. cruzi) HEK ([4]; listed as MMV022029): < 10; SI (T.b. brucei) HEK ([3]; listed as MMV022029): < 10
O=C(Nc1ccc(N2CCNCC2)cc1)c1ccn2ncc(-c3cccc(Cl)c3)c2n1 [MMV 22478]	–	–	–	–	–	–	–	8.0	100	5.9 ± 1.3	1.04	2.03 (NT)	12 ± 0.39	98	1.5 ± 0.18	–	–	–	–	–	SI (T. cruzi) HEK ([4]; listed as MMV022478): < 10; SI (T.b. brucei) HEK ([3]; listed as MMV022478): < 10
OCCc1ccc(Nc2nccc(-c3nnc4ccccn34)n2)cc1 [MMV 028694]	–	–	SA (TC)	–	–	–	–	12	98	9.4 ± 1.8	>7.8	1.0 (NT)	9.7 ± 0.05	100	0.83 ± 0.057	1.2	–	–	–	–	Emax 24 h T.b. brucei (T.b. brucei [1]): 87%; IC50 (T.b. brucei [1]): 0.7 ± 0.19 µM; Emax % (T. cruzi) ([4]; listed as MMV028694): > 95%; SI (T. cruzi) 3T3 ([4]; listed as MMV028694): > 7.8; SI (T. cruzi) HEK ([4]; listed as MMV028694): 1; Emax 48 h T.b. brucei (T.b. brucei [2]): 100%; IC50 (T.b. brucei [2]): 0.71 ± 0.13 µM; Emax Wash Off (T. cruzi [5]): 98%; IC50 (T. cruzi [5]): 12 ± 1.8 µM
O=C(Nc1ccc2c(c1)B(O)OC2)c1ccccc1C(F)(F)F [MMV 652003]	100	0.45 ± 0.067	FA (Fast-acting (FA) = IC50 value can be determined following 24 h incubation, <10-fold difference in the IC50 value from 24 to 72 h)	100	0.11 ± 0.012	100	0.092 ± 0.0027	74	–	–	>487	45	–	–	–	3.4	100	0.15 ± 0.004	> 548	0.51 ± 0.08	Speed of Action (Table 5) (T. cruzi and T.b. brucei): Fast; IC50 (HEK293 cells; Homo sapiens): 6.8 ± 0.204 µM; Emax (T. cruzi [6]): 93%; IC50 (T. cruzi [6]; [7]): 1.28 ± 0.56 µM; Emax (T. cruzi [5]; Trypanosoma cruzi): 99%; SI (T.b. brucei) (HEP) [3]: > 862
c1ccc(Oc2ccc(-c3cc(N4CCNCC4)[nH]n3)cc2)cc1 [MMV 687706]	–	–	–	–	–	–	–	7.4	99	11 ± 0.205	>6.6	1.5 (NT)	16.2 ± 5.2	99	2.2 ± 0.0028	–	–	–	–	–	–
Cc1cc(C2=NOC(c3cc(Cl)c(F)c(Cl)c3)(C(F)(F)F)C2)ccc1C(=O)NCc1ccc2c(c1)C(C)(C)OB2O (stereo not shown) [MMV 687776]	–	–	SA (TC)	–	–	–	–	3.0	100	1.6 ± 0.38	>46	8.1	13 ± 1.6	99	4.3 ± 1.3	1.0	–	–	> 50	–	Emax 24 h T.b. brucei (T.b. brucei [1]): 89%; IC50 (T.b. brucei [1]): 5.35 ± 0.103 µM; Emax % (T. cruzi) ([4]; listed as MMV687776): > 95%; SI (T. cruzi) 3T3 ([4]; listed as MMV687776): > 46; Emax 48 h T.b. brucei (T.b. brucei [2]): 99%; IC50 (T.b. brucei [2]): 4.04 ± 1.78 µM; Emax Wash Off (T. cruzi [5]): 100%; IC50 (T. cruzi [5]): 1.6 ± 0.064 µM; SI (T.b. brucei) (HEP) [3]: > 18
CN1CCN(S(=O)(=O)c2ccc(-c3ccc4c(Nc5ncc(Cl)cn5)ccnc4c3)cc2)CC1 [MMV 688283]	–	–	SA (TC)	–	–	–	–	>10 (>10)	100	6.6 ± 1.2	>11	>12 (>12)	–	99	7.6 ± 0.27	1.2	–	–	>12 (>12)	–	Emax 24 h T.b. brucei (T.b. brucei [1]): 94%; IC50 (T.b. brucei [1]): 7.8 ± 0.32 µM; Emax % (T. cruzi) ([4]; listed as MMV688283): > 95%; Emax 48 h T.b. brucei (T.b. brucei [2]): 96%; IC50 (T.b. brucei [2]): 6.2 ± 0.45 µM; Emax Wash Off (T. cruzi [5]): 100%; IC50 (T. cruzi [5]): 7.6 ± 1.5 µM; SI (T.b. brucei) (HEP) [3]: >10 (>10)
N=C(N)c1ccc(-c2cc(-c3ccccc3)on2)cc1 [MMV 688514]	–	–	–	–	–	–	–	6.0	100	4.9 ± 0.16	2.7	1.9 (NT)	9.1 ± 0.46	99	1.5 ± 0.027	–	–	–	–	–	SI (T. cruzi) HEK ([4]; listed as MMV688514): < 10; SI (T.b. brucei) HEK ([3]; listed as MMV688514): < 10
CC1CCCCN1C(=O)NCCc1coc(-c2ccc(F)cc2)n1 (stereo not shown) [MMV 688797]	99	0.15 ± 0.029	FA (Fast-acting (FA) = IC50 value can be determined following 24 h incubation, <10-fold difference in the IC50 value from 24 to 72 h)	99	0.1 ± 0.0062	99	0.097 ± 0.0021	>814 (>814)	–	–	>143	>154 (>154)	–	–	–	–	100	0.51 ± 0.11	>154 (>154)	0.38 ± 0.056	Speed of Action (Table 5) (T. cruzi and T.b. brucei): Fast; Emax (T. cruzi [6]): 86%; IC50 (T. cruzi [6]; [7]): 0.89 ± 0.135 µM; SI (T.b. brucei) (HEP) [3]: >814 (>814)
CC1CS(=O)(=O)CCN1/N=C/c1ccc([N+](=O)[O-])o1 (stereo not shown) [Nifurtimox, reference compound]	–	–	FA (Fast-acting (FA) = IC50 value can be determined following 24 h incubation, <10-fold difference in the IC50 value from 24 to 72 h)	–	–	–	–	–	–	–	>149	–	–	–	–	0.60	100	0.85 ± 0.048	–	0.35 ± 0.014	IC50 (T. cruzi [6]; [7]): 1.03 ± 0.076 µM
CC[C@@H]([C@H](C)O)n1ncn(-c2ccc(N3CCN(c4ccc(OC[C@@H]5CO[C@@](Cn6cncn6)(c6ccc(F)cc6F)C5)cc4)CC3)cc2)c1=O [Posaconazole, reference compound]	–	–	SA (Slow-acting (SA) = IC50 value unable to be determined following 24 h incubation (no plateau of activity, or plateau of activity is <80% or IC50 value < 10 µM), or >10-fold difference in the IC50 value from 24 to 72 h)	–	–	–	–	–	77	–	>333	–	–	–	–	0.36	73	0.0055 ± 4.1e-06	–	0.0018 ± 7.8e-05	Cidal / Static / Not efficacious (T. cruzi and T.b. brucei; from wash off and 48 h Emax, TC = T. cruzi): Not efficacious (TC); IC50 24 h T. cruzi (T. cruzi [6]; [7]): NA at 1 µM; Emax (T. cruzi [5]; Trypanosoma cruzi): 100%

From publication PMC9317670, “Temporal and Wash-Out Studies Identify Medicines for Malaria Venture Pathogen Box Compounds with Fast-Acting Activity against Both Trypanosoma cruzi and Trypanosoma brucei” (Microorganisms, 2022)
